Earlier results in US20110257262A1, “CRYSTALLINE INGENOL MEBUTATE” (LEO PHARMA A/S, priority 2010, published 2011).

What was measured:
[1] = system: normal cells; conditions: compared with skin cancer cells
[2] = system: skin cancer cells; conditions: via rapid mitochondrial disruption and cell death by primary necrosis

Question: Which results are given for `C/C=C(/C)C(=O)O[C@H]1C(C)=C[C@]23C(=O)[C@@H](C=C(CO)[C@@H](O)[C@]12O)[C@H]1[C@@H](C[C@H]3C)C1(C)C` [Ingenol mebutate, (1aR,2S,5R,5aS,6S,8aS,9R,10aR)-5,5a-dihydroxy-4-(hydroxy-methyl)-1,1,7,9-tetramethyl-11-oxo-1a,2,5,5a,6,9,10,10a-octahydro-1H2,8a-methanocyclopenta[a]cyclopropa[e]cyclodecen-6-yl(2Z)-2-methylbut-2-enoate]?
Answer: sensitivity of normal cells [1]: less sensitive; toxicity for skin cancer cells [2]: highly toxic
